Assay results from PMC3760277 (Journal of neurovirology, 2013).
Read-outs that look alike come from different tables or passages of the source.

Columns and labels:
[1] = Steady-state plasma pharmacokinetics; type: in vivo, HIV-infected patients (human); conditions: for AUC(0-t): AUC0–24, Visit 2 (day 21), ATV/RTV 300/100 mg once daily with CEP-1347 50 mg twice daily, arithmetic mean (SD), n=19
[2] = cited from earlier work
[3] = monkeys; background statement, ref not given; cited from earlier work
[4] = test system: HIV-1; experiment: Plasma viral load during the 21-day study; type: in vivo, HIV-infected patients (human); conditions: day 21, antiretroviral therapy (ATV/RTV + TDF/FTC) with concurrent CEP-1347 50 mg twice daily; baseline 3.80±3.70
[5] = Safety and tolerability in the clinical study; type: in vivo, HIV-infected patients (human); conditions: CEP-1347 50 mg twice daily for 20 days with ATV/RTV and TDF/FTC
[6] = rats; background statement, ref not given; cited from earlier work
[7] = CEP-1347 50 mg twice daily with ATV/r, day 21, mean (SD)

Row | SMILES | AUC0–24 GMR (90 % CI) ([1]; human, in vivo) | Cmax GMR (90 % CI) ([1]; human, in vivo) | R GMR (90 % CI) ([1]; human, in vivo) | Tmax GMR (90 % CI) ([1]; human, in vivo) | Cmax ([1]; human, plasma, oral) [ng/mL] | half-life ([1]; human, plasma, oral) [min] | Cmax ([1]; human, plasma, oral, 50 mg) [ng/mL] | Tmax ([1]; human, plasma, oral, 50 mg) [h] | half-life ([1]; human, plasma, oral, 50 mg) [min] | AUC(0-t) ([1]; human, plasma, oral) [ng·h/mL] | further results
1 | COC(=O)N[C@H](C(=O)N[C@@H](Cc1ccccc1)[C@@H](O)CN(Cc1ccc(-c2ccccn2)cc1)NC(=O)[C@@H](NC(=O)OC)C(C)(C)C)C(C)(C)C [ATV, Atazanavir] | 1.30 (0.92–1.85) | 1.14 (0.79–1.67) | 1.12 (1.05–1.20) | 0.86 (0.67–1.11) | 4000 | 762 | 4500 | 2 | 954 | 49600 | Clss/F ([1]; Visit 1 (day 1), ATV/RTV before CEP-1347, mean (SD)): 12.0 (10.3) L/h; Clss/F ([1]; Visit 1 (day 1), ATV/RTV before CEP-1347, mean (SD), listed as atazanavir): 12.0 L/h; Clss/F ([1]; Visit 2 (day 21), ATV/RTV with CEP-1347 50 mg twice daily, mean (SD)): 9.3 (10.7) L/h; Clss/F GMR (90 % CI) ([1]; human, in vivo): 0.77 (0.54–1.09); increase in T1/2 ([1]; human, in vivo): 31%; increase in accumulation ratio (R) ([1]; human, in vivo): 15%; Tmax ([1]; human, plasma, oral): 2 h; clearance ([2]; population analysis, patients given ATV/r at 300/100 mg/day, ref Colombo et al. 2006): 12.9 L/h; clearance ([2]; previously reported in patients, ref Haberl et al. 2010): 8.5 L/h
2 | CCSCc1ccc2c(c1)c1c3c(c4c5cc(CSCC)ccc5n5c4c1n2[C@H]1C[C@](O)(C(=O)OC)[C@]5(C)O1)CNC3=O [CEP-1347] |  |  |  |  |  |  | 427 | 3 | 2110 |  | Clss/F [1, 7]: 22.3 (15.3) L/h; R (accumulation ratio) [1, 7]: 5.1 (1.5); AUC ([1]; human, plasma, oral, 50 mg): 2630 ng·h/mL; recovery of single oral doses in feces [3]: at least 95%; average plasma viral load [4]: 2.41±2.03 log copies/mL; tolerability [5]: well tolerated; recovery of single oral doses in feces [6]: at least 95%
3 | CC(C)c1nc(CN(C)C(=O)N[C@H](C(=O)N[C@@H](Cc2ccccc2)C[C@H](O)[C@H](Cc2ccccc2)NC(=O)OCc2cncs2)C(C)C)cs1 [RTV, Ritonavir] | 1.12 (0.90, 1.39) | 1.07 (0.85, 1.34) | 1.05 (0.94, 1.16) | 0.89 (0.79, 1.15) | 1400 | 354 |  |  | 348 | 13200 | T1/2 GMR (90 % CI) ([1]; human, in vivo): 1.20 (0.92, 1.56)
